Laboratory results taken from ChEMBL document CHEMBL1134106, “Novel heteroaryl replacements of aromatic 3-tetrafluoroethoxy substituents in trifluoro-3-(tertiaryamino)-2-propanols as potent inhibitors of cholesteryl ester transfer protein” (Bioorg Med Chem Lett, 2001).

How the values were obtained:
[1] = biological target: T1, Cholesteryl ester transfer protein (Homo sapiens, UniProt P11597); experiment: Inhibition of recombinant human CETP mediated transfer of [3H]cholesteryl ester from HDL to LDL
T1 sequence (P11597 whole entry): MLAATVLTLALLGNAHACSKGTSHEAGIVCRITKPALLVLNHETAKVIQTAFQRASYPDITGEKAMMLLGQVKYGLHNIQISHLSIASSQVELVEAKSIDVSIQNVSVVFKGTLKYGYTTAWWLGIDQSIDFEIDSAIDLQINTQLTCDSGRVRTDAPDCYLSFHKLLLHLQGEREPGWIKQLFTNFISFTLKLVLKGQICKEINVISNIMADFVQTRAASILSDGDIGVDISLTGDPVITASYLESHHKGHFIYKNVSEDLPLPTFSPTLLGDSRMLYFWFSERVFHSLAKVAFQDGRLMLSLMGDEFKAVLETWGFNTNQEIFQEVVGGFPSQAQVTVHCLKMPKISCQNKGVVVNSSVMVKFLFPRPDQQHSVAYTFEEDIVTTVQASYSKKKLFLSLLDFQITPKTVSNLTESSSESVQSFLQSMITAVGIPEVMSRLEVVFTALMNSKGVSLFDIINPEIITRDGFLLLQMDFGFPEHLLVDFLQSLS

[2] = biological target: T1, Cholesteryl ester transfer protein; experiment: In vitro human CETP inhibitory activity assessed by measuring the rate of [3H]cholesteryl ester ([3H]CE) from HDL donor particles to LDL acceptor particles using human serum by serum transfer assay

Row | IC50 [1] | IC50 [2] | SMILES
1 | 1.12 µM | 83 µM | OC(CN(Cc1cccc(-c2cccs2)c1)c1cccc(Oc2ccccc2)c1)C(F)(F)F (configuration not stated)
2 | 4.42 µM | 47 µM | OC(CN(Cc1cccc(-c2ccccc2)c1)c1cccc(Oc2ccccc2)c1)C(F)(F)F (configuration not stated)
3 | 3.96 µM | – | Cc1ccc(CN(CC(O)C(F)(F)F)c2cccc(Oc3ccccc3)c2)cc1-c1ccco1 (configuration not stated)
4 | 14.3 µM | – | OC(CN(Cc1cccc(-c2cccnc2)c1)c1cccc(Oc2ccccc2)c1)C(F)(F)F (configuration not stated)

Row | SMILES | IC50 [1] | IC50 [2]
5 | OC(CN(Cc1ccc(F)c(-c2ccco2)c1)c1cccc(Oc2ccccc2)c1)C(F)(F)F (configuration not stated) | 0.72 µM | –
